Where two headings read alike, the source gives them in different places.
Experiments:
A2058 cells = assay: Cell viability assay (CELL-TITER-GLO) in A2058 cells; assay type: cell-based; settings: A2058 cells, 48 hour treatment, cell viability, read-out: IC50 (μM) A2058
Protocol: (§1) Cell viability assays were run using standard protocols known to those of skill in art. Cells were plated in 96 well plates at the density of 3,000-10,000 cells per well. Twenty four hours later, cells were treated with increasing concentration of test compounds (1 nM to 1 μM). After another 48 hour, cell survival was measured using CELL-TITER-GLO® reagent (Promega) following the protocol provided by the manufacture. The IC50 value was determined as the concentration of test compound that kills 50% of the cell population.
(§2) Cell viability data generated according to the protocol described in Example 97 was generated for representative compounds in A2058 and U937 cells.

U937 cells = assay: Cell viability assay (CELL-TITER-GLO) in U937 cells; assay type: cell-based; settings: U937 cells, 48 hour treatment, cell viability, read-out: IC50 (μM) U937
Protocol: as §1, §2

Row | SMILES | IC50 (A2058 cells; Homo sapiens, A2058, 48 h) [µM] | IC50 (U937 cells; Homo sapiens, U-937, 48 h) [µM] | further results
1 | COC(=O)c1nc2oc1C13c4ccccc4N[C@H]1Oc1ccc(cc13)C[C@H](NC(=O)[C@@H]1C[C@@H](O)CN1)C(=O)NC2C(C)C (stereo partly shown) [Example 36] |  |  | IC50 (A2058 cells; Homo sapiens): > 1 µM; IC50 (U937 cells; Homo sapiens, U-937): > 1 µM
2 | COC(=O)c1nc2oc1C13c4cc(ccc4O[C@@H]1N(S(C)(=O)=O)c1ccccc13)C[C@H](NC(=O)[C@@H](O)C(C)C)C(=O)N[C@H]2C(C)C (stereo partly shown) [Example 37] | > 1 | > 1 | 
3 | COC(=O)c1nc2oc1C13c4cc(ccc4O[C@@H]1Nc1c(-c4ccccc4)cccc13)C[C@H](NC(=O)[C@@H](O)C(C)C)C(=O)N[C@H]2C(C)C (stereo partly shown) [Example 38] | > 1 | > 1 | 
4 | COC(=O)c1nc2oc1C13c4cc(ccc4O[C@@H]1Nc1c(-c4cccc5[nH]ccc45)cccc13)C[C@H](NC(=O)[C@@H](O)C(C)C)C(=O)N[C@H]2C(C)C (stereo partly shown) [Example 39] | > 1 | > 1 | 
5 | COC(=O)c1nc2oc1C13c4cc(ccc4O[C@@H]1Nc1c(-c4c(C)cccc4C)cccc13)C[C@H](NC(=O)[C@@H](O)C(C)C)C(=O)N[C@H]2C(C)C (stereo partly shown) [Example 40] | > 1 | > 1 | 
6 | COC(=O)c1nc2oc1C13c4cc(ccc4O[C@@H]1Nc1c(-c4ccncc4)cccc13)C[C@H](NC(=O)[C@@H](O)C(C)C)C(=O)N[C@H]2C(C)C (stereo partly shown) [Example 41] | > 1 | > 1 | 
7 | COC(=O)c1nc2oc1C13c4cc(ccc4O[C@@H]1Nc1c(-c4c(C)c(C)cc(C)c4C)cccc13)C[C@H](NC(=O)[C@@H](O)C(C)C)C(=O)N[C@H]2C(C)C (stereo partly shown) [Example 42] | > 1 | > 1 | 
8 | CC(C)[C@H](O)C(=O)N[C@H]1Cc2ccc3c(c2)C2(C4=C(C5=NCCO5)N=C(O4)[C@H](C(C)C)NC1=O)c1ccccc1N[C@H]2O3 (stereo partly shown) [Example 43] | 0.533 | 0.697 | 
9 | COC(=O)[C@@H]1COC(c2nc3oc2C24c5ccccc5N[C@H]2Oc2ccc(cc24)C[C@H](NC(=O)[C@@H](O)C(C)C)C(=O)N[C@H]3C(C)C)=N1 (stereo partly shown) [Example 44] | > 1 | > 1 | 
10 | COC(=O)[C@H]1COC(c2nc3oc2C24c5ccccc5N[C@H]2Oc2ccc(cc24)C[C@H](NC(=O)[C@@H](O)C(C)C)C(=O)N[C@H]3C(C)C)=N1 (stereo partly shown) [Example 45] | 0.329 | 0.185 | 
11 | CCC(O)(CC)C(=O)N[C@H]1Cc2ccc3c(c2)C2(C4=C(c5nc(C(=O)OC)co5)N=C(O4)[C@H](C(C)C)NC1=O)c1ccccc1N[C@H]2O3 (stereo partly shown) [Example 47] | 0.077 | 0.019 | 
12 | COC(=O)c1coc(-c2nc3oc2C24c5ccccc5N[C@H]2Oc2ccc(cc24)C[C@H](NC(=O)[C@@H](O)C(C)(C)C)C(=O)N[C@H]3C(C)C)n1 (stereo partly shown) [Example 48] | 0.058 | 0.039 | 
13 | COC(=O)c1coc(-c2nc3oc2C24c5ccccc5N[C@H]2Oc2ccc(cc24)C[C@H](NC(=O)[C@@H](O)C(C)(C)C)C(=O)N[C@H]3C(C)C)n1 (stereo partly shown) [Example 49] |  |  | IC50 (A2058 cells): 0.049 µM; IC50 (U937 cells): 0.04 µM
14 | [H][C@@]1(C(=O)N[C@H]2Cc3ccc4c(c3)C3(C5=C(c6nc(C(=O)OC)co6)N=C(O5)[C@H](C(C)C)NC2=O)c2ccccc2N[C@H]3O4)CCCO1 (stereo partly shown) [Example 50] | 0.075 | 0.04 | 
15 | COC(=O)c1coc(-c2nc3oc2C24c5ccccc5N[C@H]2Oc2ccc(cc24)C[C@H](NC(=O)C2(O)CCCCC2)C(=O)N[C@H]3C(C)C)n1 (stereo partly shown) [Example 51] | 0.056 | 0.04 | 
16 | CCC(C)(O)C(=O)N[C@H]1Cc2ccc3c(c2)C2(C4=C(c5nc(C(=O)OC)co5)N=C(O4)[C@H](C(C)C)NC1=O)c1ccccc1N[C@H]2O3 (stereo partly shown) [Example 52] | 0.108 | 0.028 | 

Row | SMILES | IC50 (A2058 cells; Homo sapiens, A2058, 48 h) [µM] | IC50 (U937 cells; Homo sapiens, U-937, 48 h) [µM] | further results
17 | CCC(C)(C)C(=O)N[C@H]1Cc2ccc3c(c2)C2(C4=C(c5nc(C(=O)OC)co5)N=C(O4)[C@H](C(C)C)NC1=O)c1ccccc1N[C@H]2O3 (stereo partly shown) [Example 53] | 0.357 | 0.068 | 
18 | CCCCCCc1cccc2c1N[C@H]1Oc3ccc4cc3C21c1oc(nc1-c1nc(C(=O)OC)co1)[C@H](C(C)C)NC(=O)[C@@H](NC(=O)[C@@H](O)C(C)C)C4 (stereo partly shown) [Example 54] | 0.164 | 0.063 | 
19 | CCC(O)(CC)C(=O)N[C@H]1Cc2ccc3c(c2)C2(C4=C(c5nc(C(=O)O)co5)N=C(O4)[C@H](C(C)C)NC1=O)c1ccccc1N[C@H]2O3 (stereo partly shown) [Example 55] |  |  | IC50 (A2058 cells; Homo sapiens): > 1 µM; IC50 (U937 cells; Homo sapiens, U-937): 0.9 µM
20 | CC(C)[C@H](O)C(=O)N[C@H]1Cc2ccc3c(c2)C2(C4=C(c5nc(C(=O)O)co5)N=C(O4)[C@H](C(C)C)NC1=O)c1ccccc1N[C@H]2O3 (stereo partly shown) [Example 56] |  |  | IC50 (A2058 cells; Homo sapiens): 0.841 µM; IC50 (U937 cells; Homo sapiens, U-937): 0.736 µM
21 | CNC(C(=O)N[C@H]1Cc2ccc3c(c2)C2(C4=C(c5nc(C(=O)OC)co5)N=C(O4)[C@H](C(C)C)NC1=O)c1ccccc1N[C@H]2O3)C(C)C (stereo partly shown) [Example 57] | 0.313 | 0.111 | 
22 | CNC(=O)c1coc(-c2nc3oc2C24c5ccccc5N[C@H]2Oc2ccc(cc24)C[C@H](NC(=O)[C@@H](O)C(C)C)C(=O)N[C@H]3C(C)C)n1 (stereo partly shown) [Example 58] | > 1 | > 1 | 
23 | CC(C)[C@H](O)C(=O)N[C@H]1Cc2ccc3c(c2)C2(C4=C(c5nc(C(=O)NC(C)(C)C)co5)N=C(O4)[C@H](C(C)C)NC1=O)c1ccccc1N[C@H]2O3 (stereo partly shown) [Example 59] | 0.514 | 0.604 | 
24 | CC(C)[C@H](O)C(=O)N[C@H]1Cc2ccc3c(c2)C2(C4=C(c5nc(C(=O)N6CCCC6)co5)N=C(O4)[C@H](C(C)C)NC1=O)c1ccccc1N[C@H]2O3 (stereo partly shown) [Example 60] | 0.636 | 0.562 | 
25 | CCCCNC(=O)c1coc(-c2nc3oc2C24c5ccccc5N[C@H]2Oc2ccc(cc24)C[C@H](NC(=O)[C@@H](O)C(C)C)C(=O)N[C@H]3C(C)C)n1 (stereo partly shown) [Example 62] | 0.243 | 0.192 | 
26 | CC(C)[C@H](O)C(=O)N[C@H]1Cc2ccc3c(c2)C2(C4=C(c5nc(C(=O)N6CCN(C)CC6)co5)N=C(O4)[C@H](C(C)C)NC1=O)c1ccccc1N[C@H]2O3 (stereo partly shown) [Example 63] |  |  | IC50 (A2058 cells; Homo sapiens): 0.247 µM; IC50 (U937 cells; Homo sapiens, U-937): 0.162 µM
27 | CC(C)[C@H](O)C(=O)N[C@H]1Cc2ccc3c(c2)C2(C4=C(c5nc(C(=O)NC6CCCc7ccccc76)co5)N=C(O4)[C@H](C(C)C)NC1=O)c1ccccc1N[C@H]2O3 (stereo partly shown) [Example 64] | 0.184 | 0.184 | 
28 | CC(C)[C@H](O)C(=O)N[C@H]1Cc2ccc3c(c2)C2(C4=C(c5nc(C(=O)N(C)C)co5)N=C(O4)[C@H](C(C)C)NC1=O)c1ccccc1N[C@H]2O3 (stereo partly shown) [Example 65] | 0.553 | 0.235 | 
29 | CC(C)[C@H](O)C(=O)N[C@H]1Cc2ccc3c(c2)C2(C4=C(c5nc(C(N)=O)co5)N=C(O4)[C@H](C(C)C)NC1=O)c1ccccc1N[C@H]2O3 (stereo partly shown) [Example 66] | 0.363 | 0.218 | 
30 | COC(=O)c1nc(-c2nc3oc2C24c5ccccc5N[C@H]2Oc2ccc(cc24)CC(NC(=O)[C@@H](O)C(C)C)C(=O)N[C@H]3C(C)C)oc1C (stereo partly shown) [Example 67] | 0.047 | 0.024 | 
31 | COC(=O)c1nc(-c2nc3oc2C24c5ccccc5N[C@H]2Oc2ccc(cc24)C[C@H](NC(=O)[C@@H](O)C(C)(C)C)C(=O)N[C@H]3C(C)C)oc1C (stereo partly shown) [Example 68] | 0.066 | 0.057 | 
32 | CCC(O)(CC)C(=O)N[C@H]1Cc2ccc3c(c2)C2(C4=C(c5nc(C(=O)OC)c(C)o5)N=C(O4)[C@H](C(C)C)NC1=O)c1ccccc1N[C@H]2O3 (stereo partly shown) [Example 69] | 0.17 | 0.081 | 

Source: US7989482B2, “Indoline anti-cancer agents” (Joyant Pharmaceuticals, Inc., priority 2008, dated 2011)
